Test results from patent CN109762015A, “一种阿维菌素B2a磷酸化修饰物及其制备方法和应用” (HEBEI MEIHE PHARMACEUTICAL Co Ltd, priority 2019, dated 2019).

Key:
[1] = system: watermelon (西瓜); experiment: Watermelon yield after treatment (Example 8); format: in vivo; conditions: 0.25 g/plant at transplanting
[2] = system: root-knot nematode of watermelon (西瓜根结线虫); experiment: Field trial: control of watermelon root-knot nematode (Example 7); format: in vivo; conditions: 0.25 g/plant, hole application at transplanting; assessed 2 d before harvest, five-point sampling, 10 plants per field
[3] = system: plants (植株); conditions: background statement; cited from earlier work
[4] = system: other diseases and pests and non-target organisms (其他病虫害及非靶标生物); experiment: Safety evaluation: effect on other diseases/pests and non-target organisms (Example 7); format: in vivo; conditions: 0.25 g/plant, hole application at transplanting

For `CC[C@H](C)[C@H]1O[C@@]2(C[C@@H]3C[C@@H](C/C=C(\C)[C@@H](O[C@H]4C[C@H](OC)[C@@H](O[C@H]5C[C@H](OC)[C@@H](O)[C@H](C)O5)[C@H](C)O4)[C@@H](C)/C=C/C=C4\CO[C@@H]5[C@H](O)C(C)=C[C@@H](C(=O)O3)[C@]45O)O2)C[C@H](O)[C@@H]1C` [阿维菌素B2a], the single fruit weight ([1]; 3 watermelons per field, blank field 5.98) was 7.01 kg, the converted yield ([1]; converted from weighing 3 watermelons per field, blank field 38967.4) was 47784.9 kg·hm-2 and the “growth rate relative to blank field (yield increase)” value ([1]; versus blank field) was 22.62%. The control effect [2] was 83.32%, the “phytotoxicity in individual plants” value [3] was “会使个别植株出现黄化、烧根等现象” and the “effect on other diseases/pests and non-target organisms” value [4] was “无不良影响”.
